Measurements reported in PMC6150237, “Study of Absorption Characteristics of the Total Saponins from Radix Ilicis Pubescentis in an In Situ Single-Pass Intestinal Perfusion (SPIP) Rat Model by Using Ultra Performance Liquid Chromatography (UPLC)” (Molecules : A Journal of Synthetic Chemistry and Natural …, 2017).

Key:
[1] = In situ single-pass intestinal perfusion (SPIP), saponins administrated in monomer forms; format: in vivo; details: male, Sprague-Dawley, rat, other: in situ single-pass intestinal perfusion
Experimental: (§1) MDQ-TS perfusion samples at low, middle, and high concentration levels of 1.25, 2.5, and 5.0 mg·mL^−1 were prepared by separately dissolving MDQ-TS in the minimum amount of DMSO and diluted with K-R buffer solution. The amount of DMSO was 0.5% in the final perfusion solutions. C1, C2, C3, C4, DC1, and DC2 perfusion samples with the concentration equivalent to the amount contained in 2.5 mg·mL^−1 of MDQ-TS were individually prepared in the same way. Verapamil, amantadine and EDTA were directly dissolved in the MDQ-TS perfusate with terminal concentrations of 200 μmol·L^−1, 2.5 mmol·L^−1, and 2.5 mmol·L^−1, accordingly, and used for investigating the mechanisms involved for absorption.
(§2) In situ single-pass intestinal perfusion (SPIP) studies were performed using an experimental design adapted from the literature with some modifications. Briefly, male Sprague-Dawley rats weighing 180–220 g were acclimatized for at least one week before the experiment, and fasted for 18 h with free access to water before the perfusion experiment. Rats were anesthetized with an intraperitoneal injection of urethane (30 mg·kg^−1 body weight), and kept on a homeothermic blanket to maintain normal body temperature. The abdomen was opened with a midline longitudinal incision, and three segments of rat intestine (duodenum, jejunum, and ileum) of approximately 10 cm each were carefully cannulated on two ends with plastic tubing. Initially, the perfusion solution free of drug (37 °C) was pumped by peristaltic pump (BT100-1F, Longer Pump Co., Baoding, China) through the cannulated segments at a flow rate of 1 mL/min for approximately 30 min in order to clean out any residual debris. Secondly, the perfusion solution containing a known concentration of substance (C1, C2, C3, C4, DC1, DC2, and MDQ-TS) was perfused at 37 °C through the intestinal lumen at a constant flow rate of 0.2 mL/min. The first 20 min of period corresponds to steady state, i.e., when the substance is in equilibrium with the intestinal membrane. After steady state, samples were collected from distal portion of duodenum, jejunum and ileum at 10 min intervals (0–10, 10–20, 20–30, 30–40, 40–50, 50–60 min) in pre-weighted vials. Samples were immediately frozen at −20 °C until analysis by validated UPLC. During the experiment, care was taken to avoid disturbance of the circulatory system and the exposed segment was covered with a piece of sterilized gauze to keep it warm and moist by frequent application of warm (37 °C) saline. The intestinum tenue maintained its viability and intact state without disrupting the blood supply throughout the experimental period. Finally, animals were sacrificed after depth anesthesia by intraperitoneal injection of urethane, according to protocols for euthanasia in experimental animals. After death, the intestinal segment was removed for measurements of length and inside diameter.
(§3) The net water flux in the in situ perfusion studies (water absorption and efflux in the intestinal segment) was determined by gravimetric method. The effective absorption rate constant (Ka) and effective apparent permeability (Papp) of compounds in the intestinal segments were calculated according to the following mathematical expression:(1) Ka=(1−CoutQout/CinQin)Q/V (2) Papp=−Qln(CoutQout/CinQin)/2πrl where Cin and Cout are the concentration of test drug in the effluent perfusate through the inlet and outlet tube (μg·mL^−1), respectively. Qin and Qout represent the inlet and outlet volume of effluent perfusate (mL), respectively. Q is the volume flow rate of perfusion (mL·h^−1). V is the volume of the intestinal segment concerned (mL). 2πrl is the area of the mass transfer surface of intestinal segment concerned (cm^2).

[2] = system: rat small intestine (duodenum, jejunum, ileum); assay: as above; format: in vivo; details: for Ka / Papp: monomer form, n = 5; for permeability classification: monomers, Papp > 0.12 × 10^−2 cm·min^−1 classified as completely absorbed (highly permeable)
Experimental: as §1, §2, §3

[3] = In situ single-pass intestinal perfusion (SPIP), saponins administrated in MDQ-TS form; format: in vivo, rat; details: male, Sprague-Dawley, rat, other: in situ single-pass intestinal perfusion
Experimental: as §1, §2, §3

[4] = system: rat small intestine (duodenum, jejunum, ileum); assay: as above; format: in vivo; details: n = 5
Experimental: as §1, §2, §3

rat duodenum = assay: SPIP of MDQ-TS with or without amantadine (endocytosis inhibitor); format: in vivo; details: MDQ-TS 2.5 mg/mL, amantadine 2.5 mmol·L^−1
Experimental: as §1, §2
as §3, with “(cm^2). […]” for “(cm^2).”

[5] = cited from earlier work
[6] = administered in monomer forms, summary bound
[7] = monomer form, duodenum, concentration equivalent to 2.5 mg·mL^−1 MDQ-TS, n = 5
[8] = duodenum, concentration equivalent to 2.5 mg·mL^−1 MDQ-TS
[9] = MDQ-TS form 1.25 mg·mL^−1, duodenum, n = 5
[10] = MDQ-TS form 1.25 mg·mL^−1, ileum, n = 5
[11] = MDQ-TS form 1.25 mg·mL^−1, jejunum, n = 5
[12] = MDQ-TS form 2.5 mg·mL^−1, duodenum, n = 5
[13] = MDQ-TS form 2.5 mg·mL^−1, ileum, n = 5
[14] = MDQ-TS form 2.5 mg·mL^−1, jejunum, n = 5
[15] = MDQ-TS form 5.0 mg·mL^−1, duodenum, n = 5
[16] = MDQ-TS form 5.0 mg·mL^−1, ileum, n = 5
[17] = MDQ-TS form 5.0 mg·mL^−1, jejunum, n = 5
[18] = administrated in MDQ-TS form, summary bound (except DC2 in 1.25 mg·mL^−1 MDQ-TS group)
[19] = MDQ-TS form 1.25 mg·mL^−1, duodenum
[20] = MDQ-TS form 1.25 mg·mL^−1, ileum
[21] = MDQ-TS form 1.25 mg·mL^−1, jejunum
[22] = MDQ-TS form 2.5 mg·mL^−1, duodenum
[23] = MDQ-TS form 2.5 mg·mL^−1, ileum
[24] = MDQ-TS form 2.5 mg·mL^−1, jejunum
[25] = MDQ-TS form 5.0 mg·mL^−1, duodenum
[26] = MDQ-TS form 5.0 mg·mL^−1, ileum
[27] = MDQ-TS form 5.0 mg·mL^−1, jejunum

Structure (SMILES) | Papp [1, 6] [×10⁻⁶ cm/s] | Papp [1, 7] [×10⁻⁶ cm/s] | Papp ([1]; monomer form, ileum, n = 5) [×10⁻⁶ cm/s] | Papp ([1]; monomer form, jejunum, n = 5) [×10⁻⁶ cm/s] | Ka [2, 8] | Ka ([2]; ileum) | Ka ([2]; jejunum) | permeability classification [2] | Papp [3, 9] [×10⁻⁶ cm/s] | Papp [3, 10] [×10⁻⁶ cm/s] | Papp [3, 11] [×10⁻⁶ cm/s] | Papp [3, 12] [×10⁻⁶ cm/s] | Papp [3, 13] [×10⁻⁶ cm/s] | Papp [3, 14] [×10⁻⁶ cm/s] | Papp [3, 15] [×10⁻⁶ cm/s] | Papp [3, 16] [×10⁻⁶ cm/s] | Papp [3, 17] [×10⁻⁶ cm/s] | Papp [3, 18] [×10⁻⁶ cm/s] | Ka [4, 19] | Ka [4, 20] | other results
C[C@@H]1CC[C@]2(C(=O)O)CC[C@]3(C)C(=CC[C@@H]4[C@@]5(C)CC[C@H](O)[C@@](C)(C(=O)O)[C@@H]5CC[C@]43C)[C@@H]2[C@]1(C)O [C1, ilexgenin A] | > 20 | 55 | 50 | 58.3 | 1.77 ± 0.17 ×10^−2 min^−1 | 1.50 ± 0.25 ×10^−2 min^−1 | 1.65 ± 0.19 ×10^−2 min^−1 | highly permeable | 36.7 | 25 | 28.3 | 50 | 68.3 | 55 | 56.7 | 41.7 | 61.7 | > 20 | 1.86 ± 0.73 ×10^−2 min^−1 | 0.89 ± 0.08 ×10^−2 min^−1 | Ka [4, 21]: 0.95 ± 0.28 ×10^−2 min^−1; Ka [4, 22]: 1.70 ± 0.31 ×10^−2 min^−1; Ka [4, 23]: 2.90 ± 0.37 ×10^−2 min^−1; Ka [4, 24]: 2.23 ± 0.39 ×10^−2 min^−1; Ka [4, 25]: 1.68 ± 0.74 ×10^−2 min^−1; Ka [4, 26]: 1.48 ± 0.76 ×10^−2 min^−1; Ka [4, 27]: 2.30 ± 1.24 ×10^−2 min^−1; decrease of absorption compared with non-Amantadine added group (rat duodenum): 40%; absolute oral bioavailability ([5]; calculated based on literature data): low value; maximum plasma concentration ([5]; oral administration of C1, 100 mg/kg): approximately 350 ng·mL^−1
CC1CCC2(C(=O)OC3OC(CO)C(O)C(O)C3O)CCC3(C)C(=CCC4C5(C)CCC(O)C(C)(C(=O)O)C5CCC43C)C2C1(C)O (stereo not drawn) [C2, ilexsaponin A1] | > 20 | 40 | 41.7 | 41.7 | 1.40 ± 0.29 ×10^−2 min^−1 | 1.62 ± 0.32 ×10^−2 min^−1 | 1.72 ± 0.16 ×10^−2 min^−1 | highly permeable | 28.3 | 23.3 | 28.3 | 45 | 46.7 | 43.3 | 36.7 | 23.3 | 33.3 | > 20 | 1.10 ± 0.40 ×10^−2 min^−1 | 1.61 ± 0.37 ×10^−2 min^−1 | Papp ([2]; ileum): 0.25 ± 0.03 ×10^−2 cm·min^−1; Papp ([2]; jejunum): 0.25 ± 0.01 ×10^−2 cm·min^−1; Ka [4, 21]: 0.74 ± 0.25 ×10^−2 min^−1; Ka [4, 22]: 0.85 ± 0.20 ×10^−2 min^−1; Ka [4, 23]: 1.89 ± 0.35 ×10^−2 min^−1; Ka [4, 24]: 0.68 ± 0.18 ×10^−2 min^−1; Ka [4, 25]: 1.13 ± 0.62 ×10^−2 min^−1; Ka [4, 26]: 0.85 ± 0.27 ×10^−2 min^−1; Ka [4, 27]: 1.21 ± 0.51 ×10^−2 min^−1; decrease of absorption compared with non-Amantadine added group (rat duodenum): 71%
